Assay results reported in US8298781B2, “Compositions and methods for characterizing and regulating olfactory sensation” (Duke University, priority 2007, dated 2012).

Legend:
Type in all cases: in vivo
[1] = system: human subjects; assay: Human olfactory psychophysics: intensity rating by OR7D4 genotype; details: 7-point scale, two concentrations pooled; N=100 RT/WM, N=255 RT/RT
Method: (§1) Human olfactory psychophysics. All human subjects gave informed consent to participate in this study and were tested in a well-ventilated room. Normal human subjects (n=412; 218 female, 194 male; median age 34, age range 19-75) were pre-screened to exclude pregnant women and those with medical conditions causing general impairment of the sense of smell. All subjects completed two replicates of the test separated by at least 4 days. Odors were presented in amber vials as previously described (see, e.g., Keller, A., et al., Nat Neurosci 7, 337-338 (2004); herein incorporated by reference in its entirety) using bar-coded symbols to ensure that subjects were blind to the identity of all odors. The intensity and valence of 66 odors at two concentrations (“high” and “low”) and two solvents was rated using a 7-point scale. Thresholds were calculated using the single staircase method with seven reversals (see, e.g., Doty, R. L., et al., Chem Senses 20, 645-656 (1995); Doty, R. L. & Laing, D. G. in Handbook of Olfaction and Gustation (ed. Doty, R. L.) pp. 203-228 (Marcel Dekker, Inc., New York, 2003); each of which are herein incorporated by reference in their entireties). Threshold tests included both steroids as binary dilutions from […] (binary dilution 6) to 1: 134,217,728 (binary dilution 27). Subjects who could not reliably distinguish a 1:64 dilution of androstenone and androstadienone from solvent were operationally defined as anosmic to these odorous steroids, although it could not be excluded that these subjects could detect higher concentrations of these steroids (see, e.g., Bremner, E. A., et al., Chem Senses 28, 423-432 (2003); herein incorporated by reference in its entirety). Odor profiling used the method established by Dravnieks, et al. (see, e.g., Dravnieks, A., et al., Science 218, 799-801 (1982); herein incorporated by reference in its entirety).
(§2) Stimuli for olfactory psychophysics. All odors were presented as one ml of an odor dilution in either propylene glycol or paraffin oil in 20 ml amber glass vials. All of these compounds were used in the intensity and valence rating portion of the smell test.
(§3) Olfactory ratings. The intensity and valence of 66 odors were rated at two different concentrations (high and low) and the intensity and valence of the two solvents (paraffin oil and propylene glycol) was rated three times. Prior to these ratings, six stimuli that represented the spectrum of intensity and valence of the stimuli used in the study were presented to allow the subjects to calibrate the usage of the scale. The subjects were unaware that the six first stimuli served that purpose. After the rating of the 66 odors at two concentrations and the rating of the solvents, 15 stimuli that were presented earlier in the experiment were repeated to test for the effect of adaptation and olfactory fatigue on the ratings. The subjects were not aware that the last 15 stimuli served this purpose. These 15 stimuli and the six first stimuli were not included in the analysis presented here. […] The 15 control stimuli and their concentrations were as follows:
(§4) In addition there was a button on the screen labeled “I can't smell anything” and a button labeled “Don't Know”. If the “Don't Know” button was pressed, no rating was recorded. If the “I can't smell anything” button was pressed, a 0 was recorded for the intensity rating and no rating was recorded for the valence rating. The other ratings were transformed according to the following scheme:
(§5) • Extremely Weak=1 • Very Weak=2 • Slightly Weak=3 • Neither Weak nor Strong=4 • Slightly Strong=5 • Very Strong=6 • Extremely Strong=7 Valence Rating • Extremely Unpleasant=1 • Very Unpleasant=2 • Slightly Unpleasant=3 • Neither Unpleasant nor Pleasant=4 • Slightly Pleasant=5 • Very Pleasant=6 • Extremely Pleasant=7
(§6) Averages for the ratings of the different genotypes were calculated. […]

[2] = system: human subjects; assay: Human olfactory psychophysics: valence rating by OR7D4 genotype; details: 7-point scale, two concentrations pooled
Method: as §1, §2, §3, §4, §5, §6

[3] = system: human subjects; assay: Human olfactory psychophysics: odor profiling with 146 descriptors; details: vanillin 1/200
Method: Human olfactory psychophysics. All human subjects gave informed consent to participate in this study and were tested in a well-ventilated room. Normal human subjects (n=412; 218 female, 194 male; median age 34, age range 19-75) were pre-screened to exclude pregnant women and those with medical conditions causing general impairment of the sense of smell. All subjects completed two replicates of the test separated by at least 4 days. Odors were presented in amber vials as previously described (see, e.g., Keller, A., et al., Nat Neurosci 7, 337-338 (2004); herein incorporated by reference in its entirety) using bar-coded symbols to ensure that subjects were blind to the identity of all odors. The intensity and valence of 66 odors at two concentrations (“high” and “low”) and two solvents was rated using a 7-point scale. Thresholds were calculated using the single staircase method with seven reversals (see, e.g., Doty, R. L., et al., Chem Senses 20, 645-656 (1995); Doty, R. L. & Laing, D. G. in Handbook of Olfaction and Gustation (ed. Doty, R. L.) pp. 203-228 (Marcel Dekker, Inc., New York, 2003); each of which are herein incorporated by reference in their entireties). Threshold tests included both steroids as binary dilutions from […] (binary dilution 6) to 1: 134,217,728 (binary dilution 27). […]
Assigning descriptors to odors. Subjects assessed the quality of six odors using an odor profiling method that has shown to produce stable profiles of odorants. […] Odor profiling typically took five minutes per odorant and was performed as a computer-controlled selftest in which the subject's responses were directly recorded. […] The descriptors used to describe the other four odors (vanillin, pentadecalactone, androstenone, and propylene glycol) were evaluated. […]

SMILES | intensity rating, OR7D4 RT/WM vs RT/RT subjects [1] | valence rating, OR7D4 RT/WM vs RT/RT subjects [2] | use of two descriptors, OR7D4 RT/WM vs RT/RT subjects [3]
CC1COCc2cc3c(cc21)C(C)(C)C(C)C3(C)C (centres unmarked) [galaxolide] | not affected | – | –
CCCCCCCCOC(C)=O [octyl acetate] | – | less pronounced—but statistically significant—difference | –
O=C1CCCCCCCCCCCCCCO1 [pentadecalactone] | not affected | – | –
COc1cc(C=O)ccc1O [vanillin] | – | less pronounced—but statistically significant—difference | comparable increase
